{"source": "patent US6322816A", "about": "“Fast-acting analgesic” (priority 1997, dated 2001)", "origin": "cited, not measured here", "key": {"[1]": {"details": "in words, background"}, "[2]": {"details": "versus free acid; in words, background"}, "[3]": {"details": "in words, DE-C 36 39 038"}}, "note": "Structures can show the parent of a compound that is named as a salt.", "data": [{"smiles": "CC(C)Cc1ccc(C(C)C(=O)O)cc1", "note": "(racemic) [ibuprofen, 2-(4-isobutylphenyl)propionic acid]", "values": [{"measurement": "solubility", "setting": "[1]", "result": "low solubility"}]}, {"smiles": "CC(C)Cc1ccc(C(C)C(=O)O)cc1", "note": "(racemic) [lysine salt]", "values": [{"measurement": "maximum blood level Cmax compared with the free acid", "setting": "[2]", "result": "distinctly faster and higher maximum blood level Cmax"}]}, {"smiles": "CC(C)Cc1ccc(C(C)C(=O)O)cc1", "note": "(racemic) [sodium ibuprofenate]", "values": [{"measurement": "hygroscopicity", "setting": "[1]", "result": "hygroscopic"}]}, {"smiles": "CC(C)Cc1ccc([C@H](C)C(=O)O)cc1", "note": "[S(+) isomer, S(+)-ibuprofen]", "values": [{"measurement": "onset of action", "setting": "[3]", "result": "faster onset of action"}]}]}
